According to patent publication US9340575B2, “Agonists and antagonists of the urotensinergic system” (INSTITUT NATIONAL DE LA RECHERCHE SCIENTIFIQUE, priority 2011, dated 2016):

Experiments:
[1] = molecular target: T1, human urotensin II receptor (UT) (Homo sapiens, UniProt Q9UKP6); assay: Competitive radioligand binding on CHO-UT cells; conditions: for IC50: recombinant human UT
T1 construct: expressed in transfected cells; host or cells: CHO cells (CHO-UT), stably transfected, G418 selection
T1 sequence (Q9UKP6 1-389): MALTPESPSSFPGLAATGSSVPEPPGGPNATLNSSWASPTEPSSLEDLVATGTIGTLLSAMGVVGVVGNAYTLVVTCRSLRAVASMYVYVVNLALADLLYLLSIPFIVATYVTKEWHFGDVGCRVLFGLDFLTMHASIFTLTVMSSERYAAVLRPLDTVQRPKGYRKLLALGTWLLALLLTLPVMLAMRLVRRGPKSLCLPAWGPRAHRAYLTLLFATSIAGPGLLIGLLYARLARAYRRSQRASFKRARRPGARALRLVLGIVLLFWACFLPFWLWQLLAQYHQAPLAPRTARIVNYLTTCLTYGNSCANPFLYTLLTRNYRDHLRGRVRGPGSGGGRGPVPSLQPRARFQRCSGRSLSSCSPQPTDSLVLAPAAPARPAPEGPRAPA
Experimental: Transfected CHO cells expressing the human urotensin receptor (CHO-UT) were maintained in Ham-F12 medium with 10% fetal bovine serum (FBS), 2 mM L-glutamine, 100 UI/mL each of penicillin and streptomycin, and 400 μg/mL G418. […] Binding assays were following known literature procedures using CHO cells stably transfected with hGPR14. […] After 90 min of incubation at room temperature, cells were washed, lysed, and the cell-bound radioactivity was quantified using a γ-counter. […] The cells were then washed, lysed, and the radioactivity counted on a γ-counter (1470 Automatic Gamma Counter, Perkin Elmer). Binding and functional experiments were performed at least in triplicate and data, expressed as mean±S.E.M, were analyzed using the Prism software (Graph Pad Software, San Diego, Calif.). In all experiments, n represents the total number of animals studied or individual assays performed. The EC50, pEC50, pIC50 values as well as the Emax value were determined from the concentration-response curves using a sigmoidal dose-response fit with variable slope. […] The slope is calculated from the double reciprocal plot of equiactive concentrations of agonist in the presence and absence of antagonist.

[2] = test system: rat thoracic aorta rings; assay type: cell-based; conditions: percentage of KCl (40 mM) contraction; at 10^−5.5M
Experimental: Binding and functional experiments were performed at least in triplicate and data, expressed as mean±S.E.M, were analyzed using the Prism software (Graph Pad Software, San Diego, Calif.). In all experiments, n represents the total number of animals studied or individual assays performed. The EC50, pEC50, pIC50 values as well as the Emax value were determined from the concentration-response curves using a sigmoidal dose-response fit with variable slope. […] The slope is calculated from the double reciprocal plot of equiactive concentrations of agonist in the presence and absence of antagonist.

[3] = test system: rat isolated aorta; assay: Reversal of hUII-induced contractile tone in rat isolated aorta; assay type: cell-based; conditions: tone established with 4 nM hUII (EC80)
Experimental: Male rats (Sprague-Dawley, 250-300 g) were killed by CO2 asphyxiation. The thoracic aorta was then cleared of surrounding tissues and excised from aortic arch to the diaphragm. From each vessel, conjunctive tissues were removed and the clean vessel was cut into 4 mm rings. The endothelium was removed by gently rubbing the vessel's intimal surface. All preparations were placed in 5 ml organ baths filled with oxygenated normal Krebs-Henselheit solution. Contractile responses to 40 mM KCl were used as control at the beginning and at the end of each experiment. Agonistic activity was measured by increasing the concentration of the peptide in the organ chamber (3×10^−11-3×10^−6 M). For antagonist behaviour, thoracic aortic rings were first exposed to URP derivative over a period of 15 min, and then cumulative concentration-response curves to hUII, URP or ET-1 (10^−10-3×10^−6 M) were constructed. The amplitude of the contraction induced by each concentration of peptide was expressed as a percentage of the KCl-induced contraction. Finally, the ability of the antagonist to reverse the hUII-induced contraction was also evaluated. Vessels were pre-contracted with 4 nM hUII (pre-determined EC80) and after the maximum contraction was attained, contractile tone was reversed by adding increasing log unit concentrations of URP derivative.

IC50 ([1]; Binding (125I-URP) IC50 (nM), radioligand 125I-URP): 339 nM
IC50 ([1]; Binding (125I-hUII) IC50 (nM), radioligand 125I-hUII): 386 nM
Displacement of both radioligands (125I-hUII and 125I-URP) ([1]; CHO-UT cells): 100%
pIC50 for reversal of contractile tone [3]: 7.72±0.15
SMILES: CC(C)[C@H](NC(=O)[C@@H]1CSSC[C@H](NC(=O)[C@H](C)N)C(=O)N[C@@H](Cc2ccccc2)C(=O)N[C@@H](Cc2ccc(-c3ccccc3)cc2)C(=O)N[C@@H](CCCCN)C(=O)N[C@@H](Cc2ccc(O)cc2)C(=O)N1)C(=O)O [[Bip^4]URP, H-Ala-Cys-Phe-Bip-Lys-Tyr-Cys-Val-OH]
Aortic Ring contraction Emax (%), maximum efficacy at 10^−5.5M [2]: 8.7%
Suppression of contractile tone [3]: 92%
